Measurements as given in patent EP4786473A1, “PHARMACEUTICALLY ACCEPTABLE SALT AND CRYSTALLINE FORM OF QUINAZOLINE DERIVATIVE, AND USE THEREOF” (Jiangsu Hengrui Pharmaceuticals Co., Ltd., priority 2023, dated 2025).
Where two headings read alike, the source gives them in different places.

Assays:
[1] = system: HER2 wild-type Ba/F3 cells; experiment: Ba/F3 cell proliferation assay (HER2 wild-type); type: cell-based; conditions: 72 hours, Celltiter-Glo
Description: (§1) EGFR wild-type Ba/F3 cells in the logarithmic growth phase (Cobioer, Cat. No.: CBP73110) were seeded into 96-well plates at a density of 2.5 × 10^3 cells/100 uL of growth culture medium. HER2 wild-type Ba/F3 cells (Cobioer, Cat. No.: CBP73110) or HER2 A775_G776insYVMA mutant Ba/F3 cells (Cobioer, Cat. No.: CBP73184) in the logarithmic growth phase were seeded into 96-well plates at a density of 5 × 10^3 cells/100 uL of growth culture medium. The plates were incubated overnight in a 37°C cell incubator. The following day, the compound, which had been serially diluted 3-fold in growth culture medium, was added at 100 uL/well. All treatments were performed in triplicate. The plates were incubated in the 37°C cell incubator for another 72 hours. Celltiter-Glo Luminescent Cell Viability Assay was performed.
(§2) The cell proliferation rate was calculated for each well according to the following formula: Proliferation (%) = (G3 - G0 mean value of test compound wells)/(G3 mean value - GO mean value of DMSO control wells)*100. Based on the proliferation rate corresponding to each gradient concentration well and concentration thereof, the gradient curve of cell proliferation was fitted using Prism Graphpad software, and the GI50 of the compound was calculated (GI50 is defined as the compound concentration required to achieve a 50% inhibition rate of cell proliferation).

[2] = system: HER2 A775_G776insYVMA mutant Ba/F3 cells; experiment: Ba/F3 cell proliferation assay (HER2 exon 20 YVMA insertion mutant); type: cell-based; conditions: 72 hours, Celltiter-Glo; for GI50: read-out: HER2 A775_G776 ins YVMA/BaF 3 GI50
Description: as §1, §2

[3] = system: EGFR wild-type Ba/F3 cells; experiment: Ba/F3 cell proliferation assay (EGFR wild-type); type: cell-based; conditions: 72 hours, Celltiter-Glo
Description: as §1, §2

[4] = Long-term/accelerated stability; type: physicochemical
[5] = DVS (dynamic vapor sorption) hygroscopicity test; type: physicochemical
Description: DVS refers to dynamic vapor sorption and is determined using SMS DVS Advantage at 25°C, with the humidity change of 50%-95%-0%-95%-50% and the stepping of 10% (5% for the last step) (the specific humidity range is determined in accordance with the corresponding plot, and the methods listed herein are those most commonly used), and the standard for determination is as follow: dm/dt is not more than 0.002%.
100 mg of the compound of formula 1 was dissolved in 1 mL of acetone to give a clear solution. An aqueous p-toluenesulfonic acid solution (97.10 µL, 2 M) was added to the resulting solution. The mixture was stirred and centrifuged. The resulting solid was collected and dried under vacuum to obtain a product. […] The p-toluenesulfonate ion content of the product was detected to be 22.63% by ion chromatography. […] Furthermore, the crystal form was re-detected and found to be unchanged following the DVS test.

[6] = Stability study under influencing factors; type: physicochemical
From the text: The sampling and investigation period was 1 month.

[7] = 75% RH, 1 month, open container
[8] = 75% RH, 13 days, open container
[9] = 92.5% RH, 1 month, open container
[10] = 92.5% RH, 13 days, open container
[11] = 4500 Lux, 1 month, open container
[12] = 4500 Lux, 7 days, open container
[13] = 4500 Lux, 13 days, open container

SMILES: C=CC(=O)N1[C@@H]2CC[C@H]1C[C@@H](Oc1ccc3ncnc(Nc4ccc(Oc5ccn6ncnc6c5)c(C)c4F)c3c1)C2 [Example 1, 1-(endo-3-((4-((4-([1,2,4]triazolo[1,5-a]pyridin-7-yloxy)-2-fluoro-3-methylphenyl)amino)quinazolin-6-yl)oxy)-8-azabicyclo[3.2.1]oct-8-yl)prop-2-en-1-one]
- HER2 WT/BaF 3 Imax % [1]: 100%
- GI50 ([1]; read-out: HER2 WT/Ba F3 GI50): 9.3 nM
- HER2 A775_G77 6 ins YVMA/Ba F3 Imax % [2]: 100%
- GI50 [2]: 10.3 nM
- EGFR WT/BaF 3 Imax % [3]: 100%
- GI50 ([3]; read-out: EGFR WT/BaF3 GI50): 2840 nM

SMILES: C=CC(=O)N1[C@@H]2CC[C@H]1C[C@@H](Oc1ccc3ncnc(Nc4ccc(Oc5ccn6ncnc6c5)c(C)c4F)c3c1)C2 [Crystal form I of p-toluenesulfonate, 1-(endo-3-((4-((4-([1,2,4]triazolo[1,5-a]pyridin-7-yloxy)-2-fluoro-3-methylphenyl)amino)quinazolin-6-yl)oxy)-8-azabicyclo[3.2.1]oct-8-yl)prop-2-en-1-one]
- Colour and trait ([4]; 25°C/60% RH, 1 month): White powder
- Purity% ([4]; 25°C/60% RH, 1 month): 99.7%
- Salt form ([4]; 25°C/60% RH, 1 month): Unchanged
- Colour and trait ([4]; 25°C/60% RH, 2 months): White powder
- Purity% ([4]; 25°C/60% RH, 2 months): 99.7%
- Salt form ([4]; 25°C/60% RH, 2 months): Unchanged
- Colour and trait ([4]; 25°C/60% RH, 3 months): White powder
- Purity% ([4]; 25°C/60% RH, 3 months): 99.7%
- Salt form ([4]; 25°C/60% RH, 3 months): Unchanged
- Colour and trait ([4]; 25°C/60% RH, 6 months): White powder
- Purity% ([4]; 25°C/60% RH, 6 months): 99.7%
- Salt form ([4]; 25°C/60% RH, 6 months): Unchanged
- Colour and trait ([4]; 25°C/60% RH, 14 days): White powder
- Purity% ([4]; 25°C/60% RH, 14 days): 99.7%
- Salt form ([4]; 25°C/60% RH, 14 days): Unchanged
- Colour and trait ([4]; 40°C/75% RH, 1 month): White powder
- Purity% ([4]; 40°C/75% RH, 1 month): 99.7%
- Salt form ([4]; 40°C/75% RH, 1 month): Unchanged
- Colour and trait ([4]; 40°C/75% RH, 2 months): White powder
- Purity% ([4]; 40°C/75% RH, 2 months): 99.7%
- Salt form ([4]; 40°C/75% RH, 2 months): Unchanged
- Colour and trait ([4]; 40°C/75% RH, 3 months): White powder
- Purity% ([4]; 40°C/75% RH, 3 months): 99.7%
- Salt form ([4]; 40°C/75% RH, 3 months): Unchanged
- Colour and trait ([4]; 40°C/75% RH, 6 months): White powder
- Purity% ([4]; 40°C/75% RH, 6 months): 99.7%
- Salt form ([4]; 40°C/75% RH, 6 months): Unchanged
- Colour and trait ([4]; 40°C/75% RH, 14 days): White powder
- Purity% ([4]; 40°C/75% RH, 14 days): 99.6%
- Salt form ([4]; 40°C/75% RH, 14 days): Unchanged
- Colour and trait ([4]; Initial, 0 day): White powder
- Purity% ([4]; Initial, 0 day): 99.7%
- Salt form ([4]; Initial, 0 day): Crystal form I of p-toluenesulfonate
- weight gain after moisture absorption ([5]; accelerated test conditions (70% RH)): about 1.57%
- crystal form re-detected following the DVS test ([5]; after DVS test): unchanged
- weight gain after moisture absorption ([5]; extreme conditions (90% RH)): about 2.21%
- weight gain after moisture absorption ([5]; normal storage conditions (25°C, 60% RH)): about 1.18%
- Colour and trait ([6]; 40°C, 1 month, open container): White powder
- Purity% ([6]; 40°C, 1 month, open container): 95.2%
- Salt form ([6]; 40°C, 1 month, open container): Unchanged
- Colour and trait ([6]; 40°C, 7 days, open container): White powder
- Purity% ([6]; 40°C, 7 days, open container): 98.7%
- Salt form ([6]; 40°C, 7 days, open container): Unchanged
- Colour and trait ([6]; 40°C, 13 days, open container): White powder
- Purity% ([6]; 40°C, 13 days, open container): 97.6%
- Salt form ([6]; 40°C, 13 days, open container): Unchanged
- Colour and trait ([6]; 60°C, 1 month, open container): White powder
- Purity% ([6]; 60°C, 1 month, open container): 94.9%
- Salt form ([6]; 60°C, 1 month, open container): Unchanged
- Colour and trait ([6]; 60°C, 7 days, open container): White powder
- Purity% ([6]; 60°C, 7 days, open container): 98.7%
- Salt form ([6]; 60°C, 7 days, open container): Unchanged
- Colour and trait ([6]; 60°C, 13 days, open container): White powder
- Purity% ([6]; 60°C, 13 days, open container): 97.8%
- Salt form ([6]; 60°C, 13 days, open container): Unchanged
- Colour and trait [6, 7]: White powder
- Purity% [6, 7]: 99.7%
- Salt form [6, 7]: Unchanged
- Colour and trait [6, 8]: White powder
- Purity% [6, 8]: 99.7%
- Salt form [6, 8]: Unchanged
- Colour and trait [6, 9]: White powder
- Purity% [6, 9]: 99.7%
- Salt form [6, 9]: Unchanged
- Colour and trait [6, 10]: White powder
- Purity% [6, 10]: 99.7%
- Salt form [6, 10]: Unchanged
- Colour and trait [6, 11]: White powder
- Purity% [6, 11]: 99.1%
- Salt form [6, 11]: Unchanged
- Colour and trait [6, 12]: White powder
- Purity% [6, 12]: 99.6%
- Salt form [6, 12]: Unchanged
- Colour and trait [6, 13]: White powder
- Purity% [6, 13]: 99.5%
- Salt form [6, 13]: Unchanged
- Colour and trait ([6]; Initial, 0 day): White powder
- Purity% ([6]; Initial, 0 day): 99.7%
- Salt form ([6]; Initial, 0 day): Crystal form I of p-toluenesulfonate

SMILES: Cc1cc(Nc2ncnc3ccc(NC4=NC(C)(C)CO4)cc23)ccc1Oc1ccn2ncnc2c1 [Tucatinib, reference compound]
- HER2 A775_G77 6 ins YVMA/Ba F3 Imax % [2]: 100%
- GI50 ([2]; Mus musculus, BaF3): 309 nM
